Legend:
primary human T cells = assay: T cell activation and cytokine secretion assay (LEGENDplex); type: cell-based
Protocol: Peripheral blood mononuclear cells (PBMCs) were isolated from whole blood by ficoll density separation. Briefly, blood was diluted 1:2 with 0.5 mM EDTA solution in PBS, loaded onto a Ficoll-filled Leucosep tube (Greiner Bio-One), and centrifuged for 20 minutes at 1000×g. After centrifugation, the leukocyte/PBMC layer on top of the separation medium was collected and sequentially washed three times with 0.5 mM EDTA solution in PBS. T cells were isolated from PBMCs using magnetic bead-based separation following vendor specification, e.g., Biolegend MojoSort Human CD4/CD8 Naïve T Cell Isolation Kit protocol. In brief, the PBMCs were labeled with biotinylated antibodies against cell surface receptors for cells not in the population of interest. The labeled cells are then captured by streptavidin-coated magnetic beads and removed by magnetic incubation. The uncaptured cells that flow through the magnetic separation are predominantly comprised of the population of interest, in this instance CD3+ T cells. T cells were stained with a 5 μM solution of Tag-it Violet™ dye (BioLegend) for 20 minutes protected from light. The stain was quenched by incubating the cells in cell culture medium containing 10% FBS (complete media). Stained cells were plated on tissue culture plates and sub-maximally activated with concanavalin A (con A) added to the culture medium. Cells were plated at 0.1×10^6 cells well. […] Cells were collected at 24, 48, and 72 hrs. Supernatants were collected at 24, 48, and 72 hrs and cytokine secretion was analyzed by flow cytometry using a LEGENDplex assay (BioLegend). In brief, following manufacturer's protocol, beads pre-coated with antibodies specific to various cytokines were incubated with cell supernatant. […] The beads were then stained and the captured cytokine composition assessed by flow cytometry.

[1] = system: T cells in the lymph node; assay: Lymph node remodeling by hock injection, flow cytometry of lymph node cells; type: in vivo, C57BL/6J mice; conditions: hock injection of Haloperidol 48.5 nmol followed by quinpirole 0.1 nmol; 24 hours
Protocol: 24 hours after hock injection, brachial lymph nodes (LN) were harvested in culture medium (RPMI+10% FBS). LNs were transferred to 24-well tissue culture plates containing 0.5 mL LN digestion buffer (RPMI, 2% FBS, collagenase D (3.3 mg/mL), and DNAse I (40 ug/mL)). LN capsules were manually opened with two syringe (26G) needles and the LNs were incubated in digestion buffer for 15 minutes. Digested LNs were filtered with a 40 μNA cell strainer and tissues were smashed with the plunger of a 5 mL syringe. Collected cells were washed in culture medium and plated for assays. Total number of viable cells were assessed by staining with viability dye eFluor 780 (eBioscience). Surface markers of various immune cell subsets were analyzed by staining the cells with antibodies for cell identity (CD3, CD4, CD8, CD19), for the inflammatory marker CD69, and the migratory marker CCR7. The cells were then assayed by flow cytometry.

[2] = system: macrophages differentiated from CD14+ monocytes; assay: Macrophage activation and cytokine secretion assay; type: cell-based, human; conditions: dilutions from 10 μM to 1 nM
Protocol: Peripheral blood mononuclear cells (PBMCs) were isolated from whole blood by ficoll density separation. Briefly, blood was diluted 1:2 with 0.5 mM EDTA solution in PBS, loaded onto a Ficoll-filled Leucosep tube (Greiner Bio-One), and centrifuged for 20 minutes at 1000×g. After centrifugation, the leukocyte/PBMC layer was collected and sequentially washed three times with 0.5 mM EDTA solution in PBS.
Monocytes (CD14+) were isolated from PBMCs using magnetic bead-based separation following vendor specifications, e.g., Biolegend MojoSort Human CD14 Selection Kit protocol. In brief, PBMCs were labeled with biotinylated antibodies against cell surface receptors for cells not in the population of interest. The labeled cells are then captured by streptavidin-coated magnetic beads and removed by magnetic incubation. The uncaptured cells that flow through the magnetic separation are predominantly comprised of the population of interest, in this case CD14+ monocytes.
Monocytes were differentiated into macrophages by culturing in DMEM complete medium containing 10% FBS for seven days in the presence of 40 ng/mL human M-CSF. Media was changed on day 1 and day 4. On Day 4, macrophages were polarized to various subtypes as follows: M0—incubated with 40 ng/mL M-CSF; M1—cultured with 40 ng/mL M-CSF, 20 ng/mL IFNγ, and 50 ng/mL LPS; M2—incubated with 40 ng/mL M-CSF, 20 ng/mL 1L4, 20 ng/mL IL10, and 20 ng/mL TFGB. On day 7, cells were harvested by scraping them from the tissue culture plates and transferring them to 96-well plates.
Supernatants were collected at 24, 48, and 72 hrs and cytokine secretion was analyzed by flow cytometry using a LEGENDplex assay (BioLegend). In brief, following manufacturer's protocol, beads that are pre-coated with antibodies specific to various cytokines were incubated with cell supernatant. […] The beads were then stained and the captured cytokine composition assessed by flow cytometry.
M1 macrophage polarization is defined as increase in production of IL-12, TNF, IL-6, IL-8, IL-1B, MCP-1 and CCL2. Additionally, markers of M1 polarization that can be detected by RNA include Nos2. M2 polarization is defined as increase in IL-10 and/or a decrease in the M1 cytokines listed above. Additionally, markers of M2 polarization that can be detected by RNA include Arg1, IDO, PF4, CCL24, IL10, and IL4Ralpha.

[3] = system: Primary Natural Killer (NK) cells; assay: NK cell ADCC assay with trastuzumab-coated Her2 expressing target cells; type: cell-based, human; conditions: for ADCC of NK cells treated with metaproterenol alone relative to NK cells pre-treated with this antagonist prior to the agonist: antagonist pre-treatment prior to metaproterenol
Protocol: Primary Natural Killer (NK) cells are isolated from human peripheral blood using a magnetic bead-based separation kit that negatively selects NK cells by sequestering other defined cell types (T, B, monocytes, etc.). Isolated NK cells are incubated with a target cell line, for example a Her2 expressing cancer cell line that has been pre-coated with trastuzumab, an anti-Her2 antibody, at a range of target-to-effector cell ratios. Following antibody-dependent cell cytotoxicity (ADCC)—antibody-mediated killing of the target cells by the NK cells, the number of surviving target cells is assessed by a fluorescent viability stain.

[4] = low sub-nanomolar concentrations, 72 hours post treatment
[5] = T cells from two different donors, multiple time points

For `NCCc1ccc(O)c(O)c1` [dopamine], the “production of the pro-survival cytokine IL-2” value (primary human T cells; 24 and 48 hours post stimulation, nanomolar concentrations) was “increase”, the “production of the pro-inflammatory cytokine IL-5” value (primary human T cells; [4]) was “increase” and the “production of the pro-inflammatory cytokine IL-6” value (primary human T cells; [4]) was “increase”. The “production of the pro-inflammatory cytokine IL-10” value (primary human T cells; [4]) was “increase”, the “production of the pro-inflammatory cytokine IL-13” value (primary human T cells; [4]) was “increase” and the “production of the pro-inflammatory cytokine IFNγ” value (primary human T cells; low sub-nanomolar concentrations, 72 hours post treatment, con A sub-maximally activated T cells) was “increase”.

`O=C(CCCN1CCC(O)(c2ccc(Cl)cc2)CC1)c1ccc(F)cc1` [haloperidol] was tested, and the “effect of antagonist pre-treatment on the quinpirole-induced increase of CCR7+ T cells in the lymph node” value [1] was “inhibited”.

`CC(C)NCC(O)c1ccc(O)c(O)c1` (stereo not drawn) [isoproterenol] was tested, and the “production of pro-inflammatory cytokine IFNγ” value (primary human T cells; T cells from two different donors, 72 hours (FIG. 6A)) was “decreased”, the “production of pro-inflammatory cytokine TNFα” value (primary human T cells; T cells from two different donors, 72 hours (FIG. 6B)) was “decreased” and the “production of pro-inflammatory cytokine IL-10” value (primary human T cells; T cells from two different donors, 72 hours (FIG. 6C)) was “decreased”. The “amount of pro-inflammatory cytokine IL-10” value (primary human T cells; [5]) was “decrease”, the “production of pro-inflammatory cytokine IFNγ” value (primary human T cells; [5]) was “decrease” and the “production of pro-inflammatory cytokine TNFα” value (primary human T cells; [5]) was “decrease”. For the same molecule, the “transcript of NOS2” value ([2]; M1 marker) was “decrease”, the “transcripts for Arg1” value ([2]; M2 marker) was “increase” and the “transcripts for IL-10” value ([2]; M2 marker) was “increase”. For the same molecule, the “macrophage polarization (M1 or M2 phenotype)” value [2] was “polarized toward an M2 phenotype”.

`CC(C)NCC(O)c1cc(O)cc(O)c1` (stereo not drawn) [metaproterenol] was tested, and the “ADCC induced by agonist-treated NK cells, compared with NK cells pre-treated with a beta adrenergic antagonist prior to the agonist” value ([3]; surviving target cells by fluorescent viability stain) was “significantly less ADCC”.

`CC(C)(C)NCC(O)COc1cccc2c1CC(O)C(O)C2` (stereo not drawn) [nadolol] was tested, and the “ADCC of NK cells treated with metaproterenol alone relative to NK cells pre-treated with this antagonist prior to the agonist” value [3] was “significantly less ADCC”.

With `CC(C)NCC(O)COc1cccc2ccccc12` (stereo not drawn) [propranolol] the “ADCC of NK cells treated with metaproterenol alone relative to NK cells pre-treated with this antagonist prior to the agonist” value [3] was “significantly less ADCC”.

In the case of neuropeptide Y, the “cytokine IL-4” value (primary human T cells; sub-nanomolar concentrations, 48 hours post-treatment) is reported as “increase”.
